Reference: US7351531B2, “Molecules capable of binding to telomere and the like and method with the use of the same” (Japan Science and Technology Corporation, priority 2001, dated 2008)

Legend:
[1] = tested on: single-stranded human telomere sequence DNA (22-mer 5'-AGGGTTAGGGTTAGGGTTAGGG3'); test: Binding titration with single-stranded human telomere sequence DNA (22-mer, FIG. 4)
Procedure: Samples of single-stranded human telomere sequence DNA were tested for the inhibition of DNA cleavage by DNase I (DNA hydrolase) through footprinting titration in the presence of a varying concentration of the compound of formula (III) (this is hereinafter referred to as naphthyridine dimer or simply as ND).
The test result in FIG. 4 is similar to that in FIG. 2. The vertical axis of FIG. 4 indicates the cleavage inhibition ratio derived from the cleavage band intensity. […] The horizontal axis of FIG. 4 indicates the ratio of the G-G mismatch concentration to the concentration (M) of the compound of formula (III) added to the test system, [GG]/[ND] in which ND means the compound of formula (III).
A solution of a 22-mer oligonucleotide having the following base sequence: • 5′-[…]3′ (SEQ ID NO: 9) in a sodium cacodylate buffer (10 mM, pH 7.0, NaCl 100mM) was heated at 70° C. for 5 minutes, and then gradually cooled so that the oligomer could form a quadraplex structure (see Structure, 263, 1 (1993)). A varying concentration of a naphthyridine dimer was dropwise added to the resulting solution, and the naphthyridine dimer-binding amount was obtained through 360 nm absorptiometry.

[2] = tested on: G-A mismatch base pair in 52-mer duplex DNA; test: DNase I footprinting titration of 52-mer duplex DNA, G-A mismatch site; assay type: binding; parameters: effect of inhibiting G-A mismatch site cleavage: dose or concentration left out as unconfirmed
Procedure: (§1) A 5′-^32P-labeled 52-mer duplex DNA having a GC base pair, GA mismatch base pair and a GG mismatch base pair in the duplex DNA was prepared. The partial listing of the corresponding moieties is shown below.
(§2) The inventors have analyzed the duplex DNA through DNase I (DNA hydrolase) footprinting titration for the sites where the DNA cleavage by DNase I was inhibited in the presence of a varying concentration of the compound of formula (III).
(§3) The relationship between the cleavage band intensity and the naphthyridine concentration in FIG. 1 is plotted to give a graph as in FIG. 2. The vertical axis of FIG. 2 indicates the cleavage inhibition ratio derived from the cleavage band intensity. […] The horizontal axis of FIG. 2 indicates the concentration (M) of the compound of formula (III) added to the test system. In FIG. 2, the closed circles (●) indicate the G-G mismatch site, and the closed triangles (▴) indicate the G-A mismatch site.
(§4) ^32P-5′-end-labeled 52-mer DNA was hybridized into a duplex DNA with G-G and G-A mismatches (see the right side of FIG. 1).
(§5) A varying concentration of the compound obtained in Example 1 was added to the duplex DNA, and the DNA was analyzed through DNase I footprinting titration.
(§6) Concretely, the duplex DNA (<4 nM strand concentration) was incubated at 4° C. for 12 hours along with a varying concentration of the compound obtained in Example 1, in a tris-HCl buffer (10 mM, pH 7.6) that contains NaCl (100 mM) and MgCl2(5 mM). To this was added 0.2 U DNaseI (DNA hydrolase), and this was further incubated at 25° C. for 8 minutes. Next, this was precipitated in ethanol to recover the DNA, which was then subjected to electrophoresis with a gel that contains 12% polyacrylamide and 7 M urea.

[3] = tested on: G-G mismatch base pair in 52-mer duplex DNA; test: DNase I footprinting titration of 52-mer duplex DNA, G-G mismatch site; assay type: binding
Procedure: as §1, §2, §3, §4, §5, §6

[4] = tested on: normal G-C base pair in 52-mer duplex DNA; test: DNase I footprinting titration of 52-mer duplex DNA, normal G-C site; assay type: binding; settings: concentration 0 to 500 μM, FIG. 1
Procedure: as §1, §2
In FIG. 1, the concentration of the compound of formula (III) varies from 0 to 500 μM from the left to the right. The sites cleaved with the DNase I (DNA hydrolase) are seen black, while those protected from cleavage with the DNase I are seen white.
as §4, §5
as §6, with “Next, this was precipitated in ethanol to recover the DNA, which was then subjected to electrophoresis with a gel that contains 12% polyacrylamide and 7 M urea.” left out

[5] = 52-mer duplex DNA, DNase I footprinting titration

association constant to the G-G mismatch (Ka(GGmis)) in human telomere sequence ([1]; 22-mer, sodium cacodylate buffer pH 7.0, NaCl 100 mM, Scatchard plot): 420000 M⁻¹ | concentration ratio [GG]/[ND] at which G-G mismatch site cleavage is almost completely inhibited ([1]; FIG. 4): about 3 | concentration ratio [GG]/[ND] at which compound is already effective for inhibiting cleavage of the G-G mismatch site ([1]; FIG. 4, relatively low concentration): 0.5 | effect of inhibiting G-A mismatch site cleavage [2]: about 90% | association constant to the G-A mismatch (Ka(GAmis)) [2, 5]: 16300 M⁻¹ | concentration at which compound becomes effective for inhibiting cleavage of the G-A mismatch site ([2]; FIG. 2): about 10^−6 M | association constant to the G-G mismatch (Ka(GGmis)) [3, 5]: 1.13e+07 M⁻¹ | concentration at which G-G mismatch site cleavage by DNase I is almost completely inhibited ([3]; FIG. 2): about 10^−5 M | ratio of the association constants (Ka(GGmis))/(Ka(GAmis)) ([3]; G-G versus G-A mismatch, 52-mer duplex DNA): 696 | protection of normal G-C base pair from DNase I cleavage [4]: cleaved by DNase I
Structure (SMILES): Cc1ccc2ccc(NC(=O)CCNCCC(=O)Nc3ccc4ccc(C)nc4n3)nc2n1 [compound of formula (III), dinaphthyridinamide]
